Measurements published in publication PMC3171608 (Bioorganic & medicinal chemistry, 2011).

Legend:
[1] = system: other kinesin family members; conditions: cited from earlier work
[2] = target: T1, centromeric protein E (CENP-E) (Homo sapiens, UniProt Q02224); experiment: Kinesin ATPase selectivity panel, CENP-E; assay type: biochemical; conditions: panel of mitotic kinesins; data not shown
T1 sequence (Q02224 6-329 limits assumed): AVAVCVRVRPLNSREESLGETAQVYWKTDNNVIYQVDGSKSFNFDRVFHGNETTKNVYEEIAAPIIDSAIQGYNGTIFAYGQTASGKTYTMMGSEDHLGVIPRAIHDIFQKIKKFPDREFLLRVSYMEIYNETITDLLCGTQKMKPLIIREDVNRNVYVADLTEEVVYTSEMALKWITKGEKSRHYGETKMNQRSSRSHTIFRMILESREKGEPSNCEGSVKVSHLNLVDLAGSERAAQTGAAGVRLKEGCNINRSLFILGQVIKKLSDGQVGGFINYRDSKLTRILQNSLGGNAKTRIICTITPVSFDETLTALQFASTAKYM

HeLa cells = experiment: Phenotypic assay in cultured HeLa cells; assay type: cell-based, human; conditions: 1 μM compound
[3] = target: mammalian centromere-associated kinesin (MCAK) (Homo sapiens, UniProt Q99661); experiment: Kinesin ATPase selectivity panel, MCAK; assay type: biochemical; conditions: panel of mitotic kinesins; data not shown
Chain of mammalian centromere-associated kinesin (MCAK) (Q99661 258-588 limits assumed): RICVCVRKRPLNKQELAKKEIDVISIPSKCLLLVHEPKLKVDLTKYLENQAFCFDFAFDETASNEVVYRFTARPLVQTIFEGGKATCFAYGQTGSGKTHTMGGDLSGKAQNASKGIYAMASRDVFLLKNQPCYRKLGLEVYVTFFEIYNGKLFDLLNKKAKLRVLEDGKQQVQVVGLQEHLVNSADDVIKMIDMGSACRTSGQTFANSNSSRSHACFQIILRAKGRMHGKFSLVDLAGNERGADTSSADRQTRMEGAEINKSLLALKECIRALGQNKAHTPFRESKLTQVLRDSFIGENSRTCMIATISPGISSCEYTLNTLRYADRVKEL

NCI60 tumor panel = NCI60 tumor panel growth inhibition; conditions: for GI50: read-out: Average GI50 in leukemia and colon tumor cell lines
M14 = experiment: NCI60 growth inhibition, M14; assay type: cell-based; conditions: melanoma M14, GI50
chromokinesin = conditions: panel of mitotic kinesins; data not shown

| Inhibitory activity against CENP-E [2] | Inhibitory activity against MCAK [3] | SMILES | Activity against other kinesin family members [1] | Interphase microtubule morphology (HeLa cells) | Average fold increase in potency over 1 (NCI60 tumor panel; NCI60 panel GI50) [fold] | Average fold increase in potency over Monastrol (NCI60 tumor panel; NCI60 panel GI50) [fold] | GI50 (NCI60 tumor panel) [nM] | Fold increase in activity over monastrol (M14) [fold] | Inhibitory activity against chromokinesin (chromokinesin) |
| --- | --- | --- | --- | --- | --- | --- | --- | --- | --- |
| – | – | N[C@@H](CSC(c1ccccc1)(c1ccccc1)c1ccccc1)C(=O)O [Compound 1, S-trityl-L-cysteine] | no activity | – | – | – | – | – | – |
| no measurable inhibition detected | no measurable inhibition detected | N[C@H](CO)CSC(c1ccccc1)(c1ccccc1)c1ccccc1 [Compound 4, (R)-2-amino-3-(tritylthio)propan-1-ol] | – | normal | – | – | – | – | – |
| – | – | COc1ccc(C(SCCN)(c2ccccc2)c2ccccc2)cc1 [Compound 7] | – | normal | ~35 | ~143 | ≤ 230 | 1200 | – |
| no measurable inhibition detected | no measurable inhibition detected | COc1ccc(C(SC[C@H](N)CO)(c2ccccc2)c2ccccc2)cc1 [Compound 5, (R)-2-amino-3-((4-methoxyphenyl)diphenylmethylthio)propan-1-ol] | – | normal | – | – | ≤ 230 | – | no measurable inhibition detected |
